Results on 43 compounds are retold here after BindingDB's records for doi:10.1007/s00044-011-9938-0 (n/a, 2012).

For the assay, the target named is Alpha-glucosidase MAL62 (Saccharomyces cerevisiae, UniProt P07265). Put plainly: Inhibition of baker's yeast alpha-glucosidase using p-nitrophenyl-alpha-D-glucopyranoside as substrate by spectrophotometry.
Sequence of Alpha-glucosidase MAL62 (P07265 whole entry): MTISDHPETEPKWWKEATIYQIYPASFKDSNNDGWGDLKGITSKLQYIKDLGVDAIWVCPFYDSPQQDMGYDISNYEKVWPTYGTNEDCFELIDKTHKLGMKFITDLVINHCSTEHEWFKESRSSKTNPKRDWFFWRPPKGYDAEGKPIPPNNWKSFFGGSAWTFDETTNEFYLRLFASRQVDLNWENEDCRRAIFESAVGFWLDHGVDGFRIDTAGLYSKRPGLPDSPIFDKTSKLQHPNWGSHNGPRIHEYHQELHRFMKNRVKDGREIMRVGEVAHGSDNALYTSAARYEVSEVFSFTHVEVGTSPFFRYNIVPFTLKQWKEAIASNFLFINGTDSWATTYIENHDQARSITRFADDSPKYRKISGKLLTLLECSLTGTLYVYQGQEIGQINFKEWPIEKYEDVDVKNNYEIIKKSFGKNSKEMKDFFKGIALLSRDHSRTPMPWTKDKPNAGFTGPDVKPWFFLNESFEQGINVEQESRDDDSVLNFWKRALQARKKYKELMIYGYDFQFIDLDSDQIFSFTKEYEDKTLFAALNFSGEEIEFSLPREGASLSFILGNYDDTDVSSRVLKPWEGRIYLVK

On to `CCOC(=O)/C=C/c1ccc(OC)cc1` [4-Methoxy Ethyl Cinnamate], for which half-maximal inhibition (IC50) required 50 µM.
For the compound `CC(C)=CCc1cc(C2CCc3ccc(O)cc3O2)c(CC=C(C)C)c(O)c1O` (stereo not drawn), half-maximal inhibition (IC50) was put at 12 µM.
With `CC1(C)C=Cc2cc(C(=O)/C=C/c3ccc(O)cc3)c(O)cc2O1` [4-HYDROXYISOLONCHOCARPIN], the IC50 (commonly the concentration needed to halve the response being measured) worked out at 12.3 µM.
Take `C=C(C)C(CC=C(C)C)Cc1c(O)cc(O)c2c1OC(c1ccc(O)cc1O)CC2=O` (stereo not drawn): the IC50 was 37 µM.
For `C=CC(C)(C)c1c(O)cc(O)c2c(=O)c3oc4c5c(c(OCC=C(C)C)cc4c3oc12)OC(C)(C)C=C5` the value was 27.6 µM; for `O=C1C[C@@H](c2ccc(O)cc2)Oc2cc(O)cc(O)c21`, 75 µM.
In the case of `COc1ccc(/C=C/C(=O)O)cc1` [3-(4-methoxyphenyl)acrylic acid], the IC50 amounted to 40 µM.
As for `C=C(C)C(CCC(C)(C)O)Cc1c(O)cc(OC)c2c1OC(c1ccc(O)cc1O)CC2=O` (stereo not drawn), the IC50 came out at 179 µM. This IC50 lies about 4.5-fold higher than the previous one.
For `O=C(O)/C=C/c1ccc(F)cc1`, the IC50 came out at 270 µM.
As to `CC1(C)C=Cc2cc(C(=O)/C=C/c3ccc(O)c(O)c3)c(O)cc2O1`, the IC50 amounted to 19.1 µM.
For `O=c1cc(-c2ccc(O)c(O)c2)oc2cc(O)cc(O)c12` [2-(3,4-dihydroxyphenyl)-5,7-dihydroxy-4H-chromen-4-one] the value was 21 µM.
Consider `O=c1c(O)c(-c2cc(O)c(O)c(O)c2)oc2cc(O)cc(O)c12`, for which 5 µM corresponded to half-maximal inhibition (IC50).
For `C=C(C)C(CC=C(C)C)Cc1c(O)cc(O)c2c1OC(c1ccccc1O)CC2=O` (stereo not drawn) the value was 45 µM; for `CC(C)=CCc1c(C2CCc3ccc(O)cc3O2)cc2c(c1O)OC(C)(C)C=C2` (stereo not drawn), 26.3 µM; for `C=CC(C)(C)c1c(O)cc(O)c2c(=O)c3oc4c(CC=C(C)C)c(O)c(OCC=C(C)C)cc4c3oc12`, 33.3 µM.
As to `O=C(O)/C=C/c1ccc(O)cc1` [p-Coumaric Acid], inhibition was half-maximal at 200 µM (IC50).
On to `COc1cccc(/C=C/C(=O)O)c1`, for which the midpoint of inhibition, the IC50, lay at 579 µM.
`C=CC(C)(C)c1cc2c(cc1O)OC(c1cc(O)c(O)c(CC=C(C)C)c1C/C=C\C)CC2` (stereo not drawn): half-maximal inhibition (IC50) was put at 10.6 µM.
As to `C=C(C)C(CC=C(C)C)Cc1c(O)cc(OC)c2c1OC(c1ccc(OC)cc1O)CC2=O` (stereo not drawn), the midpoint of inhibition, the IC50, lay at 155 µM.
For `CC(C)=CCc1cc(C(=O)/C=C/c2ccc(O)cc2)c(O)cc1O` [BROUSSOCHALCONE B] the value was 11.1 µM; for `CC(C)=CCc1cc(C2CCc3ccc(O)cc3O2)cc(O)c1O` (stereo not drawn) [5-(7-Hydroxy-chroman-2-yl)-3-(3-methyl-but-2-enyl)-benzene-1,2-diol], 75.7 µM; for `O=C(O)/C=C/c1cccc(O)c1` [(2E)-3-(3-hydroxyphenyl)prop-2-enoic acid], 1270 µM.
`COc1ccc([C@@H]2CC(=O)c3c(O)cc(O)cc3O2)cc1O` [(2S)-5,7-dihydroxy-2-(3-hydroxy-4-methoxyphenyl)-3,4-dihydro-2H-1-benzopyran-4-one] registered an IC50 of 150 µM.
Regarding `O=c1c(O)c(-c2ccc(O)cc2O)oc2cc(O)cc(O)c12` [2-(2,4-dihydroxyphenyl)-3,5,7-trihydroxychromen-4-one], 40 µM corresponded to half-maximal inhibition (IC50).
Compound `O=C(O)/C=C/c1ccc(Oc2ccccc2)cc1` displayed an IC50 of 440 µM.
As for `O=c1c(O)c(-c2ccc(O)cc2)oc2cc(O)cc(O)c12`, the IC50 came to 12 µM. This IC50 lies about 37-fold lower than the previous one.
For `OC[C@H]1OC(OC2=C(c3cc(O)c(O)c(O)c3)Oc3cc(O)cc(O)c3C2)[C@@H](O)[C@@H](O)[C@@H]1O` (stereo partly drawn), inhibition was half-maximal at 30 µM (IC50). This IC50 lies about 2.5-fold higher than the previous one.
The compound `O=C(O[C@@H]1Cc2c(O)cc(O)cc2O[C@@H]1c1cc(O)c(O)c(O)c1)c1cc(O)c(O)c(O)c1` [epigallocatechin gallate] yielded an IC50 of 2 µM.
`CC(C)=CCc1cc(-c2oc3cc(O)c(CC=C(C)C)c(O)c3c(=O)c2O)cc(O)c1O` [CHEBI:66727] registered an IC50 of 2.1 µM.
Consider `CC(C)=CCc1cc(C(=O)/C=C/c2ccc(O)c(O)c2)c(O)cc1O` [broussochalcone A], for which the 50% inhibitory concentration (IC50) came out at 5.3 µM.
For `O=c1c(-c2ccc(O)cc2)coc2cc(O)ccc12` the value was 14 µM.
Turning to `OC[C@H]1OC(OC2=C(c3ccc(O)c(O)c3)Oc3cc(O)cc(O)c3C2)[C@@H](O)[C@@H](O)[C@@H]1O` (stereo partly drawn), the IC50 was found to be 20 µM. This IC50 and that of the compound before are within 1.5-fold of each other.
Consider `O=c1c(-c2ccc(O)cc2)coc2cc(O)cc(O)c12` [Prunetol], for which the IC50 is 7 µM. Compared with the last compound, the IC50 is about 2.9-fold lower.
The compound `O=c1c(O)c(-c2ccc(O)c(O)c2)oc2cc(O)cc(O)c12` [2-(3,4-dihydroxyphenyl)-3,5,7-trihydroxy-chromone;hydrate] had an IC50 of 7 µM.
Consider `C=C(C)C(CC=C(C)C)Cc1c(O)cc(OC)c2c1OC(c1ccc(O)cc1O)CC2=O` (stereo not drawn), for which the concentration for half-maximal inhibition (IC50) was 68.1 µM.
As to `O=C(O)c1cc(O)c(O)c(O)c1` [Gallic Acid, F], half-maximal inhibition (IC50) required 5.2 µM. Against the preceding compound, the IC50 is about 13-fold lower.
For the compound `COc1cc(O)c(C(C)=C(C)C)c2c1C(=O)CC(c1ccc(O)cc1)O2` (stereo not drawn), the midpoint of inhibition, the IC50, lay at 358 µM.
In turn, `O=c1cc(O)cc2oc(-c3ccc(O)c(O)c3)c(O)cc1-2` yielded a 50% inhibitory concentration (IC50) of 4 µM.
For `Oc1cc(O)c2c(c1)O[C@H](c1cc(O)c(O)c(O)c1)[C@H](O)C2` [CHEBI:71224], the IC50 is 75 µM.
For `O=c1c(O)c(-c2ccc(O)c(O)c2)oc2cc(O)ccc12` [2-(3,4-dihydroxyphenyl)-3,7-dihydroxy-chromen-4-one] the value was 13 µM; for `C=CC(C)(C)c1c(O)cc(O)c2c(=O)c(O)c(-c3cc(O)c(O)c(CC=C(C)C)c3)oc12` [2-[3,4-Dihydroxy-5-(3-methyl-but-2-enyl)-phenyl]-8-(1,1-dimethyl-allyl)-3,5,7-trihydroxy-chromen-4-one], 3.6 µM.
For `O=C(O)/C=C/c1ccc(Cl)cc1` [CHEBI:61116] the value was 390 µM; for `Oc1cc(O)c2c(c1)O[C@H](c1ccc(O)c(O)c1)[C@@H](O)C2` [CHEBI:23053], 130 µM.
